Test results from the supplement of paper PMC11208160.

Assay: recombinant barcode read abundance after kanamycin selection (control-corrected) (log10(CPM+1)); higher = more efficient recombination; sequences stand for … in AGTGCAGAGAAAATCGGCCAGTTTTCTCTGCCTGCAGTCCGCATGCCGT…AGATTTATGCAGCGGACTGCCTTTCTCCCAAAGTGATAAACCGGACAGTATCATGGACCGGTTTTCCCGGTAATCCGTATTTGCAAGGTTGGTTTCACT; site = the 11-nt target
Method in brief: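 Pooled oligos, each joining a target to an IS621 bridge RNA target-binding loop, were cloned and co-electroporated with a donor plasmid into E. coli. Selective plates carried chloramphenicol/ampicillin/kanamycin and 0.1 mM IPTG, while chloramphenicol/ampicillin LB agar served as control, with two replicates of each. Recombination efficiency rests on averaged, control-corrected counts per million of barcodes at recombinant junctions, shown as log10(CPM+1).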
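Also: IS621 recombinase and bridge RNA in Escherichia coli cells.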

Sequence | recombinant barcode read abundance (log10)
GTCACTACTTGGGTTCTAACCTGTTGCAT (site AAGGTACCTCC) | 0.139
TGTCGGACTTGGGTTCTAACCTGTTGCAT (site TGTCGGACTCT) | 0.18
TAGTGAGCTTGGGTTCTAACCTGTTGCCT (site TCGTGAGCTAG) | 0.134
GAAAGTGCTTGGGTTCTAACCTGTTGCCT (site GAAAGTGCTAG) | 1.23
GAGAAATCTTGGGTTCTAACCTGTTGCCT (site GAGAGATCTAG) | 0.0526
GAGATGACTTGGGTTCTAACCTGTTGCGG (site GAGATGACTCC) | 2.29
CCGGTTGCTTGGGTTCTAACCTGTTGCCT (site CCGGATTCTAG) | 0.0357
AGTAGTGCTTGGGTTCTAACCTGTTGCCT (site ATTAGTGCTAG) | 0.0347
TCCAAACCTTGGGTTCTAACCTGTTGCAG (site TCCAAGCCTCT) | 0.151
GGGGTTCCTTGGGTTCTAACCTGTTGCTT (site GGGGTTCCTAT) | 1.17
CCTTTACCTTGGGTTCTAACCTGTTGCCT (site TCTTTACCTAG) | 0.171
AAATTGACTTGGGTTCTAACCTGTTGCCT (site AATTTGACTAG) | 0.0913
ACAGGTACTTGGGTTCTAACCTGTTGCCT (site CCAGGTACTAG) | 0.428
ACAATACCTTGGGTTCTAACCTGTTGCCT (site ATAATACCTAG) | 0.143
GAATCCTCTTGGGTTCTAACCTGTTGCCT (site AAATCCTCTAG) | 0.145
AGGGGTCCTTGGGTTCTAACCTGTTGCAT (site TGGGATCCTAT) | 0.482
TGATCCTCTTGGGTTCTAACCTGTTGCTA (site AGGTCCTCTTA) | 0.0555
GCTCAGGCTTGGGTTCTAACCTGTTGCCT (site GCTCAGTCTAG) | 0.202
ATAAATGCTTGGGTTCTAACCTGTTGCCT (site ATAAATGCTAG) | 1.34
CAGCATACTTGGGTTCTAACCTGTTGCCT (site CGGCATACTAG) | 0.215
TAGAATCCTTGGGTTCTAACCTGTTGCAC (site TAGAATCCTCT) | 0.152
GTATTTCCTTGGGTTCTAACCTGTTGCTT (site GTATCTCCTAA) | 0.0837

Sequence | recombinant barcode read abundance (log10)
TGGAACACTTGGGTTCTAACCTGTTGCCT (site TGGAACACTAG) | 0.98
ACCTAACCTTGGGTTCTAACCTGTTGCAT (site ATCTATCCTAT) | 0.214
TCAGGATCTTGGGTTCTAACCTGTTGCCT (site TCAGTATCTAG) | 0.291
ACACCGCCTTGGGTTCTAACCTGTTGCCT (site CCACCGCCTAG) | 0.118
AAGCACCCTTGGGTTCTAACCTGTTGCTG (site CCTGCGACTGT) | 0.276
TAGTTTACTTGGGTTCTAACCTGTTGCTA (site TAGTTTACTTA) | 0.0536
GCTGGACCTTGGGTTCTAACCTGTTGCCT (site ACTGGACCTAA) | 0.179
GTGGTAGCTTGGGTTCTAACCTGTTGCCT (site GTGGTAACTAG) | 0.857
GTAAACACTTGGGTTCTAACCTGTTGCAG (site GTAGACACTCG) | 0.113
GGGACCACTTGGGTTCTAACCTGTTGCTA (site TTCGGACCTCC) | 0.0578
TAGTGTTCTTGGGTTCTAACCTGTTGCCT (site TAGTGTTCTAG) | 0.57
ACATGCACTTGGGTTCTAACCTGTTGCAT (site ACATGTACTAT) | 0.116
GTGTGTACTTGGGTTCTAACCTGTTGCCT (site GTGTGTGCTAG) | 0.24
ATTAGGACTTGGGTTCTAACCTGTTGCGA (site ATTAGGACTTC) | 2.3
GGGCACTCTTGGGTTCTAACCTGTTGCAT (site GGGCACTCTAG) | 0.606
ACAAAGGCTTGGGTTCTAACCTGTTGCGG (site ACAAAGGCTCC) | 2.51
TAGTTCACTTGGGTTCTAACCTGTTGCCA (site TAGTTCACTTG) | 0.0767
CGACGAACTTGGGTTCTAACCTGTTGCCT (site GTCAATCCTCC) | 0.0212
CGCCTAGCTTGGGTTCTAACCTGTTGCCT (site CGCCTAGCTAG) | 0.206
CCTTGCACTTGGGTTCTAACCTGTTGCGA (site CCTAGCACTTC) | 0.0223
ACTAGAGCTTGGGTTCTAACCTGTTGCCT (site ACGAGAGCTAG) | 0.197
GGTCGACCTTGGGTTCTAACCTGTTGCCT (site AGTCGACCTAG) | 0.0754

Sequence | recombinant barcode read abundance (log10)
TGTTGAGCTTGGGTTCTAACCTGTTGCCG (site TGTAGAGCTCG) | 0.09
ATGGACCCTTGGGTTCTAACCTGTTGCTC (site ATGGACCCTGA) | 1.93
AGCCCTCCTTGGGTTCTAACCTGTTGCAT (site AGCCCTCCTAT) | 1.41
CACCAGACTTGGGTTCTAACCTGTTGCCA (site CACCAGACTTG) | 0.539
GCCGAAACTTGGGTTCTAACCTGTTGCCT (site GCCGACACTAG) | 0.0951
AGCGCTACTTGGGTTCTAACCTGTTGCCT (site AGCGCTACTAG) | 0.145
AGCCACTCTTGGGTTCTAACCTGTTGCCT (site AGCCACTCTAG) | 1.49
ACGTTGCCTTGGGTTCTAACCTGTTGCCT (site ACTTTGCCTAG) | 0.0271
TTGCTAGCTTGGGTTCTAACCTGTTGCGG (site TTGCTAGCTCC) | 1.56
GACACAACTTGGGTTCTAACCTGTTGCCT (site GACACAACTAG) | 0
CCTTTACCTTGGGTTCTAACCTGTTGCCT (site CCTTTACCTAG) | 0.337
TCCTATCCTTGGGTTCTAACCTGTTGCGT (site TCCTATCCTAC) | 0.623
ATCGTTGCTTGGGTTCTAACCTGTTGCCT (site CTCGTTGCTAG) | 0.0176
AGGAGCCCTTGGGTTCTAACCTGTTGCCA (site AGGAGCCCTAG) | 0.408
GAGGCTCCTTGGGTTCTAACCTGTTGCCG (site GAGGCTCCTCG) | 0.993
TAGTACCCTTGGGTTCTAACCTGTTGCAG (site TAGTACCCTCT) | 1.23
CCACTCCCTTGGGTTCTAACCTGTTGCCT (site CCACTTCCTAG) | 0.279
AGCCCTCCTTGGGTTCTAACCTGTTGCTG (site AGCCCTCCTGA) | 0.109
GCGATGTCTTGGGTTCTAACCTGTTGCCT (site GTGATGTCTAG) | 0.116
ATGCCCACTTGGGTTCTAACCTGTTGCCT (site ATGCCGACTAG) | 0.049
GCGGATCCTTGGGTTCTAACCTGTTGCCT (site GCGAATCCTAG) | 0.824
TTCAAGTCTTGGGTTCTAACCTGTTGCGT (site TTCAAGTCTAC) | 1.33

Sequence | recombinant barcode read abundance (log10)
TTCAATTCTTGGGTTCTAACCTGTTGCTT (site TATAATTCTAA) | 0.00963
AGCCCTCCTTGGGTTCTAACCTGTTGCTG (site AGCCCTCCTTA) | 0.0866
GGAGCTCCTTGGGTTCTAACCTGTTGCCA (site CGAGCTCCTGG) | 0.082
CATAGTCCTTGGGTTCTAACCTGTTGCCA (site CATAGTCCTTG) | 0.299
ACATTTCCTTGGGTTCTAACCTGTTGCAT (site ACATTTCCTAT) | 0.8
GAAGTCCCTTGGGTTCTAACCTGTTGCCT (site TAAGTCCCTAG) | 1.22
AGAATAGCTTGGGTTCTAACCTGTTGCAG (site AGAATAGCTCT) | 2.13
AGCCCTCCTTGGGTTCTAACCTGTTGCAG (site AGCCCTCCTCT) | 1.86
CCGGGATCTTGGGTTCTAACCTGTTGCCT (site CCGGGATCTAG) | 1.22
GGGCACTCTTGGGTTCTAACCTGTTGCTT (site GGGCACTCTAG) | 1.35
CCGGTGACTTGGGTTCTAACCTGTTGCCT (site GCGGTGACTAG) | 0.146
TTCTTTCCTTGGGTTCTAACCTGTTGCCT (site TTCTGTCCTAG) | 0.0839
GGGTAATCTTGGGTTCTAACCTGTTGCCT (site GGGTAAACTAG) | 0.27
TGTTGAGCTTGGGTTCTAACCTGTTGCCG (site TGTTGAGCTCG) | 0.554
CTAGACTCTTGGGTTCTAACCTGTTGCAG (site CTAGACTCTTT) | 0.376
AGCAACCCTTGGGTTCTAACCTGTTGCAA (site AGCAACCCTTT) | 0.829
GGGTCCACTTGGGTTCTAACCTGTTGCCT (site GGGTCCACTAG) | 2.5
CTAGTGACTTGGGTTCTAACCTGTTGCGC (site CTAGTGACTCC) | 0.0835
CGCGATCCTTGGGTTCTAACCTGTTGCCT (site CGCGTTCCTAG) | 0.265
CCTCAGTCTTGGGTTCTAACCTGTTGCTT (site CCTCACTCTAA) | 0.0235
